What all share (experiment): Competitive fluorescence titration of all-trans retinol with 11-cis retinaldehyde
Holding throughout (assay type): binding

One assay deals with T1, Xenopus IRBP Module 2 (Xenopus laevis, UniProt Q7SZI7).
T1 construct: cDNAs corresponding to the full-length IRBP, module 1, and module 2 were expressed in pThioHis; modules 3 and 4 were expressed in pTrxFus; made in house; host or cells: E. coli Top10 (pThioHis)
T1 sequence (Q7SZI7 319-617 limits assumed): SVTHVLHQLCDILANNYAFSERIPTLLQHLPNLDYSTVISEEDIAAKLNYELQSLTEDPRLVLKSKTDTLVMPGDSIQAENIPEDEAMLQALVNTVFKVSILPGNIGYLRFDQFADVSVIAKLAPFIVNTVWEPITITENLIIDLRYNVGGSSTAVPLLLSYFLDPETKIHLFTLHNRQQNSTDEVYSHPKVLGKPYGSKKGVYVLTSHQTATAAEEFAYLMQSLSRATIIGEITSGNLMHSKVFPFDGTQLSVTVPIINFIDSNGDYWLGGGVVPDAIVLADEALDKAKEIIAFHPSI
How it is done:
(§1) Figure 9 Competitive inhibition by 11-cis retinaldehyde of all-trans retinol binding to the individual modules of Xenopus IRBP. Binding of all-trans retinol to the individual modules was measured by fluorescence enhancement in the presence of varying amounts of 11-cis retinal. Panels A through D correspond to modules 1 through 4 respectively. […] Three dimensional nonlinear regression was used to determine the number of binding sites, the dissociation constant of all-trans retinol, and the dissociation constant of 11-cis retinal for each of the individual modules. The concentrations of the proteins used in the titrations were as follows: module 1 (0.99 μM; panel A); module 2 (1.10 μM; panel B); module 3 (1.10 μM; panel C); module 4 (1.00 μM; panel D).
(§2) To describe the displacement of all-trans retinol by 11-cis retinaldehyde, Equation 1 was modified to take into account the competition between the two ligands. The apparent dissociation constants for all-trans retinol measured under these conditions is related to the dissociation constant of 11-cis retinaldehyde through the following expression.
(§3) Kapp=Kdall−trans[1+Rt11−cis/Kd11−cis] MathType@MTEF@5@5@+=feaafiart1ev1aaatCvAUfKttLearuWrP9MDH5MBPbIqV92AaeXatLxBI9gBaebbnrfifHhDYfgasaacH8akY=wiFfYdH8Gipec8Eeeu0xXdbba9frFj0=OqFfea0dXdd9vqai=hGuQ8kuc9pgc9s8qqaq=dirpe0xb9q8qiLsFr0=vr0=vr0dc8meaabaqaciaacaGaaeqabaqabeGadaaakeaacqWGlbWsdaWgaaWcbaGaemyyaeMaemiCaaNaemiCaahabeaakiabg2da9iabdUealnaaDaaaleaacqWGKbazaeaacqWGHbqycqWGSbaBcqWGSbaBcqGHsislcqWG0baDcqWGYbGCcqWGHbqycqWGUbGBcqWGZbWCaaGcdaWadaqaaiabigdaXiabgUcaRmaalaaabaGaemOuai1aa0baaSqaaiabdsha0bqaaiabigdaXiabigdaXiabgkHiTiabdogaJjabdMgaPjabdohaZbaaaOqaaiabdUealnaaDaaaleaacqWGKbazaeaacqaIXaqmcqaIXaqmcqGHsislcqWGJbWycqWGPbqAcqWGZbWCaaaaaaGccaGLBbGaayzxaaaaaa@58DE@
(§4) The origin of the above expression is discussed in reviews dealing with competition assays. Substitution of equation 2 into equation 1 yields the following expression.
(§5) Fenh=C1+C2[Rtall−trans−(Rtall−trans+NPt+Kdall−trans+Kdall−transRt11−cis/Kd11−cis)^2−4NPtRtall−trans] MathType@MTEF@5@5@+=feaafiart1ev1aaatCvAUfKttLearuWrP9MDH5MBPbIqV92AaeXatLxBI9gBaebbnrfifHhDYfgasaacH8akY=wiFfYdH8Gipec8Eeeu0xXdbba9frFj0=OqFfea0dXdd9vqai=hGuQ8kuc9pgc9s8qqaq=dirpe0xb9q8qiLsFr0=vr0=vr0dc8meaabaqaciaacaGaaeqabaqabeGadaaakeaacqWGgbGrdaWgaaWcbaGaemyzauMaemOBa4MaemiAaGgabeaakiabg2da9iabdoeadnaaBaaaleaacqaIXaqmaeqaaOGaey4kaSIaem4qam0aaSbaaSqaaiabikdaYaqabaGcdaWadaqaaiabdkfasnaaDaaaleaacqWG0baDaeaacqWGHbqycqWGSbaBcqWGSbaBcqGHsislcqWG0baDcqWGYbGCcqWGHbqycqWGUbGBcqWGZbWCaaGccqGHsisldaGcaaqaamaabmaabaGaemOuai1aa0baaSqaaiabdsha0bqaaiabdggaHjabdYgaSjabdYgaSjabgkHiTiabdsha0jabdkhaYjabdggaHjabd6gaUjabdohaZbaakiabgUcaRiabd6eaojabdcfaqnaaBaaaleaacqWG0baDaeqaaOGaey4kaSIaem4saS0aa0baaSqaaiabdsgaKbqaaiabdggaHjabdYgaSjabdYgaSjabgkHiTiabdsha0jabdkhaYjabdggaHjabd6gaUjabdohaZbaakiabgUcaRmaalaaabaGaem4saS0aa0baaSqaaiabdsgaKbqaaiabdggaHjabdYgaSjabdYgaSjabgkHiTiabdsha0jabdkhaYjabdggaHjabd6gaUjabdohaZbaakiabdkfasnaaDaaaleaacqWG0baDaeaacqaIXaqmcqaIXaqmcqGHsislcqWGJbWycqWGPbqAcqWGZbWCaaaakeaacqWGlbWsdaqhaaWcbaGaemizaqgabaGaeGymaeJaeGymaeJaeyOeI0Iaem4yamMaemyAaKMaem4CamhaaaaaaOGaayjkaiaawMcaamaaCaaaleqabaGaeGOmaidaaOGaeyOeI0IaeGinaqJaemOta4Kaemiuaa1aaSbaaSqaaiabdsha0bqabaGccqWGsbGudaqhaaWcbaGaemiDaqhabaGaemyyaeMaemiBaWMaemiBaWMaeyOeI0IaemiDaqNaemOCaiNaemyyaeMaemOBa4Maem4CamhaaaqabaaakiaawUfacaGLDbaaaaa@A768@

A further assay addresses T2, Xenopus IRBP Module 3 (Xenopus laevis, UniProt Q7SZI7).
T2 construct: cDNAs corresponding to the full-length IRBP, module 1, and module 2 were expressed in pThioHis; modules 3 and 4 were expressed in pTrxFus; made in house; host or cells: E. coli GI724 / GI698 (pTrxFus)
The conditions noted are these: protein 1.10 μM. How it is done: as §1, §2, §3, §4, §5

A further assay deals with T3, Xenopus IRBP Module 4 (Xenopus laevis, UniProt Q7SZI7).
T3 construct: cDNAs corresponding to the full-length IRBP, module 1, and module 2 were expressed in pThioHis; modules 3 and 4 were expressed in pTrxFus; made in house; host or cells: E. coli GI724 / GI698 (pTrxFus)
T3 sequence (Q7SZI7 923-1219): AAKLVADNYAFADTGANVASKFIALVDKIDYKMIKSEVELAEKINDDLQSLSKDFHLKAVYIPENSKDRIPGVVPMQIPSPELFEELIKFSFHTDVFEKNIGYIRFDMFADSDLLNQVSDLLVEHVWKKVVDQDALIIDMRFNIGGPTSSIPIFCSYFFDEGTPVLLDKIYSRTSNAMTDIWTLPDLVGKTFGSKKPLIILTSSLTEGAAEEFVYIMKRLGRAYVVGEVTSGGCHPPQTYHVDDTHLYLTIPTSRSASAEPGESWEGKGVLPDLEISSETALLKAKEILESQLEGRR
Conditions: protein 1.00 μM. How it is done:
as §1, §2, §3, §4, §5

For a further assay, the target named is Xenopus IRBP Module 1 (Xenopus laevis, UniProt Q7SZI7). The conditions noted are these: protein 0.99 μM. How it is done: as §1, §2, §3, §4, §5
Xenopus IRBP Module 1, sequence (Q7SZI7 23-318): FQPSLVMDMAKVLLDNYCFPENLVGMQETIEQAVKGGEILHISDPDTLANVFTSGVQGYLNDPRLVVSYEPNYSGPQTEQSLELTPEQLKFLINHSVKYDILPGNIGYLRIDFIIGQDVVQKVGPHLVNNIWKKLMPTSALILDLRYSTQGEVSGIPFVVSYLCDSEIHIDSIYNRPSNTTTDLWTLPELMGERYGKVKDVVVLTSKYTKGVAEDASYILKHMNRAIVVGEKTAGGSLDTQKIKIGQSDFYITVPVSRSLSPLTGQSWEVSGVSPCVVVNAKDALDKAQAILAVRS
The next assay deals with T4, full-length Xenopus IRBP (Xenopus laevis, UniProt Q7SZI7).
T4 construct: We expressed the full-length IRBP as well as its individual modules as thioredoxin-fusion proteins using pTrxFus and pThioHis vectors; made in house; host or cells: E. coli Top10 (pThioHis)
T4 sequence (Q7SZI7 23-1219): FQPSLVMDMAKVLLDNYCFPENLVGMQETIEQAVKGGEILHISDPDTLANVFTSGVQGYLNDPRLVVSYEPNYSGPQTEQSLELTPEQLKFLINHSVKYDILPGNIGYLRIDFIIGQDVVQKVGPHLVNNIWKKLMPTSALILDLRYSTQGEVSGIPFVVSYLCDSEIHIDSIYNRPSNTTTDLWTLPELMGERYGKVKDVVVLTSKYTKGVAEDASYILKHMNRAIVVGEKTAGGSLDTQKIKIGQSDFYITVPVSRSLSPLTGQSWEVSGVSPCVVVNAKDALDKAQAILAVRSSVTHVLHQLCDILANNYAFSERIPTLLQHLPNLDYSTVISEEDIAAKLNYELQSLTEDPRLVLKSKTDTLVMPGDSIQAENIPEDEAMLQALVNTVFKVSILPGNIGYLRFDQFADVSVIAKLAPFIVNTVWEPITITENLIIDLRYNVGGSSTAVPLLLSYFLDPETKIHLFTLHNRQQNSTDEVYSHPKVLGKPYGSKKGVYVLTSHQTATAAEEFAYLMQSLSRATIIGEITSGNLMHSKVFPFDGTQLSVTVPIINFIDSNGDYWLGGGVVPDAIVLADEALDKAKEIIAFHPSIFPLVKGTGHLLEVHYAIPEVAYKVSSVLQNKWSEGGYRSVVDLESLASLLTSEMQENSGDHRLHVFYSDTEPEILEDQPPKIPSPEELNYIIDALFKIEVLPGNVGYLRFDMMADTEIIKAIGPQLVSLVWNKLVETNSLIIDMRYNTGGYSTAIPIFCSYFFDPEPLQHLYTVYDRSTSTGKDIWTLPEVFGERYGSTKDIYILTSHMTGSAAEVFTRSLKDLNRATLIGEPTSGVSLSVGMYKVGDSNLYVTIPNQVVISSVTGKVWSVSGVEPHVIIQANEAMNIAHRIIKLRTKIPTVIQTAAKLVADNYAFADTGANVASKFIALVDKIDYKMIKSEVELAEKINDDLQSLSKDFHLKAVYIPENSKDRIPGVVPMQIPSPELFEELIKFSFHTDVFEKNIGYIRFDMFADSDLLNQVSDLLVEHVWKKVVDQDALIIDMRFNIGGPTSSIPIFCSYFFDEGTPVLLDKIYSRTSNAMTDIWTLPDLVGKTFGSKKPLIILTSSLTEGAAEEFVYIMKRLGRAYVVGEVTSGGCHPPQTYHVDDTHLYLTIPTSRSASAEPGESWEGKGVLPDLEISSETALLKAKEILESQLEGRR
From the text: In Figure 8B, full-length Xenopus IRBP was titrated with all-trans retinol in the presence of different fixed concentrations of 11-cis retinaldehyde. Binding of all-trans retinol to Xenopus IRBP was followed by monitoring the enhancement of its fluorescence. […] Equation 3 (see methods) was used to analyze the data generating the 3-dimensional representation of the fit shown graphically in Figure 8B.
as §2, §3, §4
Fenh=C1+C2[Rtall−trans−(Rtall−trans+NPt+Kdall−trans+Kdall−transRt11−cis/Kd11−cis)^2−4NPtRtall−trans] […]

Setting [1] is: competition, in presence of 11-cis retinal, read-out: Kd All-trans retinol.
Setting [2] is: competition with all-trans retinol, read-out: Kd 11-cis retinal.

For orientation: Kd means the constant that tells how readily two partners part at equilibrium.

Where two headings read alike, the source gives them in different places.

T2 sequence (Q7SZI7 616-912): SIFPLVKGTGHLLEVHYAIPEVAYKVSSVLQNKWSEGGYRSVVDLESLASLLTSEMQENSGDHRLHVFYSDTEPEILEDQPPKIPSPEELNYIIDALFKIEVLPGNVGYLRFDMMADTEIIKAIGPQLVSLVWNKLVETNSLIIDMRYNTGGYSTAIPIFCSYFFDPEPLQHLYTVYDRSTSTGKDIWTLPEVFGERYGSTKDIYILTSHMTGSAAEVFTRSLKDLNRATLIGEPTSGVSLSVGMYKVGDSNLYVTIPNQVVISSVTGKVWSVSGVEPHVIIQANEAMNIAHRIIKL

For `CC1=C(/C=C/C(C)=C/C=C/C(C)=C/CO)C(C)(C)CCC1` [all-trans retinol], the “Ligand selectivity of module 2” value at Xenopus IRBP Module 2 (comparison of Kd for all-trans retinol and 11-cis retinaldehyde) is given as “selectivity for all-trans retinol over 11-cis retinaldehyde”. Further, the Kd at Xenopus IRBP Module 2 (competition, in presence of 11-cis retinal, protein 1.10 μM, read-out: Kd All-trans retinol) worked out at 74 ± 37 nM; at Xenopus IRBP Module 3 (setting [1]) it was 840 ± 220 nM; on Xenopus IRBP Module 4 (setting [1]), 410 ± 90 nM; on Xenopus IRBP Module 1 (setting [1]) it was 670 ± 170 nM; on full-length Xenopus IRBP (competition, in presence of fixed concentrations of 11-cis retinaldehyde, read-out: Kd All-trans retinol), 220 ± 130 nM.

Take `CC1=C(/C=C/C(C)=C/C=C/C(C)=C/C=O)C(C)(C)CCC1` [11-cis retinal]: the Kd at Xenopus IRBP Module 2 (competition with all-trans retinol, protein 1.10 μM, read-out: Kd 11-cis retinal) amounted to 280 ± 130 nM; at Xenopus IRBP Module 3 (setting [2]), 560 ± 110 nM; on Xenopus IRBP Module 4 (setting [2]) it was 290 ± 50 nM; at Xenopus IRBP Module 1 (setting [2]), 570 ± 110 nM; on full-length Xenopus IRBP (setting [2]), 210 ± 100 nM. Further, the “Binding sites (N)” value on Xenopus IRBP Module 2 (competition, shared sites, protein 1.10 μM) stood at 1.22 ± 0.10; at Xenopus IRBP Module 3 (competition, shared sites), 1.90 ± 0.28; at Xenopus IRBP Module 4 (competition, shared sites), 1.47 ± 0.18; on Xenopus IRBP Module 1 (competition, shared sites), 1.29 ± 0.24; at full-length Xenopus IRBP (competition, sites assumed shared by all-trans retinol and 11-cis retinal), 3.53 ± 0.19.

These data come from paper PMC2000878, “Module structure of interphotoreceptor retinoid-binding protein (IRBP) may provide bases for its complex role in the visual cycle – structure/function study of Xenopus IRBP” (BMC Biochemistry, 2007).
